Data on seven compounds can be found in ChEMBL document CHEMBL4627293, “Synthesis and in vitro activity of asymmetric indole-based bisamidine compounds against Gram-positive and Gram-negative pathogens” (2020).

In brackets after ≈: the same amount, converted by molar mass.

What all share (type): functional
The subject of experiment [1] is Staphylococcus epidermidis. Description: Antimicrobial activity against methicillin-susceptible Staphylococcus epidermidis ATCC 12228.
The subject of experiment [2] is Enterococcus faecalis. Description: Antimicrobial activity against Vancomycin-sensitive Enterococcus faecalis ATCC 29212.
Experiment [3] deals with Klebsiella pneumoniae. The experiment can be described thus: Antimicrobial activity against ESBL-producing Klebsiella pneumoniae ATCC 700603.
For experiment [4], the system named is Klebsiella pneumoniae. The experiment can be described thus: Antimicrobial activity against NDM-1 producing Klebsiella pneumoniae ATCC BAA-2146.
A further experiment deals with Providencia rettgeri. The experiment can be described thus: Antimicrobial activity against Providencia rettgeri ATCC 31052.
For experiment [5], the system named is Enterococcus faecalis. Description: Antimicrobial activity against Vancomycin-resistant Enterococcus faecalis ATCC 51299.
Another experiment deals with Escherichia coli. The experiment can be described thus: Antimicrobial activity against Escherichia coli ATCC 25922.
Another experiment deals with Proteus vulgaris. The experiment can be described thus: Antimicrobial activity against Proteus vulgaris ATCC 29905.
The next experiment relates to Citrobacter freundii. Description: Antimicrobial activity against Citrobacter freundii ATCC 43864.
Experiment [6] relates to Acinetobacter calcoaceticus. The experiment can be described thus: Antimicrobial activity against Acinetobacter calcoaceticus ATCC 19606.
In experiment [7] the test system is Staphylococcus aureus. Description: Antimicrobial activity against methicillin-sensitive Staphylococcus aureus ATCC 29213.
Experiment [8] relates to Klebsiella pneumoniae. Description: Antimicrobial activity against Klebsiella pneumoniae 7.
In a further experiment the test system is Enterococcus faecium. Description: Antimicrobial activity against vancomycin-resistant Enterococcus faecium ATCC 700221.
The next experiment has as its system Pseudomonas aeruginosa. Description: Antimicrobial activity against Pseudomonas aeruginosa ATCC 27853.
Experiment [9] deals with Staphylococcus aureus. The experiment can be described thus: Antimicrobial activity against methicillin- resistant Staphylococcus aureus ATCC 33591.

As usually defined, the MIC is the lowest concentration that inhibits growth of the organism. For `CN(C)C(=N)c1ccc2cc(-c3ccc(Oc4ccc(-c5cc6ccc(C(=N)N(C)C)cc6[nH]5)cc4)cc3)[nH]c2c1`, the MIC in [1] was 0.125 µg/mL (≈ 0.231 µM); in the experiment on Enterococcus faecalis [2], 0.5 µg/mL (≈ 0.925 µM); in the experiment with Klebsiella pneumoniae [3], 8 µg/mL (≈ 14.8 µM); against Klebsiella pneumoniae [4] it was 8 µg/mL (≈ 14.8 µM); with Providencia rettgeri, 8 µg/mL (≈ 14.8 µM); against Enterococcus faecalis [5] it was 1 µg/mL (≈ 1.85 µM). Moreover, the minimum inhibitory concentration (MIC) is 4 µg/mL (≈ 7.4 µM) in the experiment with Escherichia coli; 8 µg/mL (≈ 14.8 µM) against Proteus vulgaris; 8 µg/mL (≈ 14.8 µM) with Citrobacter freundii; greater than 128 µg/mL in [6]; 0.25 µg/mL (≈ 0.462 µM) against Staphylococcus aureus [7]; 8 µg/mL (≈ 14.8 µM) against Klebsiella pneumoniae [8]. Besides, the MIC against Enterococcus faecium turned out to be 2 µg/mL (≈ 3.7 µM); with Pseudomonas aeruginosa, 128 µg/mL (≈ 237 µM); with Staphylococcus aureus [9], 0.25 µg/mL (≈ 0.462 µM).

Turning to `CNC(=N)c1ccc2cc(-c3ccc(Oc4ccc(-c5cc6ccc(C(=N)NC)cc6[nH]5)c(C(F)(F)F)c4)cc3)[nH]c2c1`, the MIC in experiment [1] was found to be 0.25 µg/mL (≈ 0.431 µM); in the experiment on Enterococcus faecalis [2], 0.5 µg/mL (≈ 0.861 µM); against Klebsiella pneumoniae [3] it was 16 µg/mL (≈ 27.6 µM); in the experiment with Klebsiella pneumoniae [4], 8 µg/mL (≈ 13.8 µM); in the experiment with Providencia rettgeri it was 32 µg/mL (≈ 55.1 µM); in the experiment on Enterococcus faecalis [5] it was 1 µg/mL (≈ 1.72 µM). Moreover, the MIC is 4 µg/mL (≈ 6.89 µM) in the experiment on Escherichia coli; 16 µg/mL (≈ 27.6 µM) with Proteus vulgaris; 8 µg/mL (≈ 13.8 µM) against Citrobacter freundii; 32 µg/mL (≈ 55.1 µM) in experiment [6]; 0.5 µg/mL (≈ 0.861 µM) with Staphylococcus aureus [7]; 8 µg/mL (≈ 13.8 µM) against Klebsiella pneumoniae [8]. For the same compound, the MIC against Enterococcus faecium turned out to be 0.5 µg/mL (≈ 0.861 µM); against Pseudomonas aeruginosa, 64 µg/mL (≈ 110 µM); against Staphylococcus aureus [9], 0.5 µg/mL (≈ 0.861 µM).

`CC(C)NC(=N)c1ccc2cc(-c3ccc(Oc4ccc(-c5cc6ccc(C(=N)NC(C)C)cc6[nH]5)nc4)cc3)[nH]c2c1`: the minimal inhibitory concentration (MIC) in experiment [1] amounted to 0.125 µg/mL (≈ 0.219 µM); in the experiment with Enterococcus faecalis [2], 0.25 µg/mL (≈ 0.439 µM); in the experiment with Klebsiella pneumoniae [3], 8 µg/mL (≈ 14 µM); in the experiment with Klebsiella pneumoniae [4], 8 µg/mL (≈ 14 µM); in the experiment with Providencia rettgeri, 4 µg/mL (≈ 7.02 µM); against Enterococcus faecalis [5], 0.5 µg/mL (≈ 0.878 µM). Moreover, the minimal inhibitory concentration (MIC) in the experiment with Escherichia coli was 2 µg/mL (≈ 3.51 µM); in the experiment with Proteus vulgaris, 8 µg/mL (≈ 14 µM); in the experiment with Citrobacter freundii it was 4 µg/mL (≈ 7.02 µM); in [6], 16 µg/mL (≈ 28.1 µM); with Staphylococcus aureus [7] it was 0.25 µg/mL (≈ 0.439 µM); against Klebsiella pneumoniae [8] it was 8 µg/mL (≈ 14 µM). For the same compound, the minimum inhibitory concentration (MIC) in the experiment on Enterococcus faecium came out at 0.25 µg/mL (≈ 0.439 µM); against Pseudomonas aeruginosa it was 64 µg/mL (≈ 112 µM); in the experiment with Staphylococcus aureus [9] it was 0.125 µg/mL (≈ 0.219 µM).

For the compound `CNC(=N)c1ccc2cc(-c3ccc(Oc4ccc(-c5cc6ccc(C(=N)NC)cc6[nH]5)c(OC)c4)cc3)[nH]c2c1`, the MIC in experiment [1] was 0.25 µg/mL (≈ 0.461 µM); in the experiment with Enterococcus faecalis [2], 0.5 µg/mL (≈ 0.921 µM); in the experiment with Klebsiella pneumoniae [3] it was 128 µg/mL (≈ 236 µM); against Klebsiella pneumoniae [4], 32 µg/mL (≈ 59 µM); in the experiment on Providencia rettgeri, greater than 128 µg/mL; in the experiment on Enterococcus faecalis [5], 0.5 µg/mL (≈ 0.921 µM). Besides, the MIC with Escherichia coli is 16 µg/mL (≈ 29.5 µM); against Proteus vulgaris, 128 µg/mL (≈ 236 µM); in the experiment with Citrobacter freundii, 32 µg/mL (≈ 59 µM); in experiment [6], greater than 128 µg/mL; in the experiment with Staphylococcus aureus [7], 1 µg/mL (≈ 1.84 µM); against Klebsiella pneumoniae [8], 64 µg/mL (≈ 118 µM). In addition, the MIC was 1 µg/mL (≈ 1.84 µM) against Enterococcus faecium, greater than 128 µg/mL with Pseudomonas aeruginosa and 1 µg/mL (≈ 1.84 µM) in the experiment on Staphylococcus aureus [9].

Take `CNC(=N)c1ccc2cc(-c3ccc(Oc4ccc(-c5cc6ccc(C(=N)NC)cc6[nH]5)c(Cl)c4)cc3)[nH]c2c1`: the MIC in [1] amounted to 2 µg/mL (≈ 3.66 µM); against Enterococcus faecalis [2], 16 µg/mL (≈ 29.2 µM); in the experiment on Klebsiella pneumoniae [3], 64 µg/mL (≈ 117 µM); with Klebsiella pneumoniae [4], 64 µg/mL (≈ 117 µM); with Providencia rettgeri, 128 µg/mL (≈ 234 µM); with Enterococcus faecalis [5], 16 µg/mL (≈ 29.2 µM). For the same compound, the MIC with Escherichia coli was 64 µg/mL (≈ 117 µM); with Proteus vulgaris it was 64 µg/mL (≈ 117 µM); with Citrobacter freundii it was 64 µg/mL (≈ 117 µM); in [6] it was 128 µg/mL (≈ 234 µM); in the experiment with Staphylococcus aureus [7] it was 4 µg/mL (≈ 7.31 µM); against Klebsiella pneumoniae [8], 64 µg/mL (≈ 117 µM). Besides, the MIC amounted to 8 µg/mL (≈ 14.6 µM) against Enterococcus faecium, 128 µg/mL (≈ 234 µM) with Pseudomonas aeruginosa and 4 µg/mL (≈ 7.31 µM) in the experiment with Staphylococcus aureus [9].

On to `CC(C)NC(=N)c1ccc2cc(-c3ccc(Oc4ccc(-c5cc6ccc(C(=N)NC(C)C)cc6[nH]5)cn4)cc3)[nH]c2c1`, for which the MIC in experiment [1] came out at 0.25 µg/mL (≈ 0.439 µM); in the experiment on Enterococcus faecalis [2], 1 µg/mL (≈ 1.76 µM); in the experiment with Klebsiella pneumoniae [3], 8 µg/mL (≈ 14 µM); against Klebsiella pneumoniae [4] it was 16 µg/mL (≈ 28.1 µM); in the experiment on Providencia rettgeri, 16 µg/mL (≈ 28.1 µM); against Enterococcus faecalis [5] it was 1 µg/mL (≈ 1.76 µM). The MIC is 4 µg/mL (≈ 7.02 µM) against Escherichia coli; 16 µg/mL (≈ 28.1 µM) against Proteus vulgaris; 8 µg/mL (≈ 14 µM) in the experiment with Citrobacter freundii; 64 µg/mL (≈ 112 µM) in experiment [6]; 0.25 µg/mL (≈ 0.439 µM) against Staphylococcus aureus [7]; 8 µg/mL (≈ 14 µM) against Klebsiella pneumoniae [8]. In addition, the minimal inhibitory concentration (MIC) in the experiment on Enterococcus faecium amounted to 0.25 µg/mL (≈ 0.439 µM); against Pseudomonas aeruginosa it was 32 µg/mL (≈ 56.2 µM); against Staphylococcus aureus [9], 0.25 µg/mL (≈ 0.439 µM).

As to `CC(C)NC(=N)c1ccc2cc(-c3ccc(Oc4ccc(-c5cc6ccc(C(=N)NC(C)C)cc6[nH]5)c(Cl)c4)cc3)[nH]c2c1`, the MIC was 1 µg/mL (≈ 1.66 µM) in experiment [1]; 16 µg/mL (≈ 26.5 µM) in the experiment with Enterococcus faecalis [2]; greater than 128 µg/mL with Klebsiella pneumoniae [3]; greater than 128 µg/mL against Klebsiella pneumoniae [4]; greater than 128 µg/mL against Providencia rettgeri; 16 µg/mL (≈ 26.5 µM) in the experiment on Enterococcus faecalis [5]. Further, the minimum inhibitory concentration (MIC) with Escherichia coli was 128 µg/mL (≈ 212 µM); in the experiment on Proteus vulgaris it was greater than 128 µg/mL; in the experiment on Citrobacter freundii, greater than 128 µg/mL; in experiment [6] it was greater than 128 µg/mL; against Staphylococcus aureus [7], 8 µg/mL (≈ 13.3 µM); against Klebsiella pneumoniae [8], greater than 128 µg/mL. Besides, the results for the minimum inhibitory concentration (MIC) against Enterococcus faecium, against Pseudomonas aeruginosa and against Staphylococcus aureus [9] were 8 µg/mL (≈ 13.3 µM), greater than 128 µg/mL and 8 µg/mL (≈ 13.3 µM), respectively.
